Experimental findings from patent US8106065B2, “Antitussive agent” (Toray Industries, Inc., priority 2005, dated 2012) are described below.

This experiment concerns coughing induced by citric acid. Briefly: Effect on guinea pig coughing models induced by citric acid. Format: in vivo. To be noted: s.c.; for antitussive effect (number of coughs): Comparative Example 1; for effects for suppressing coughs in comparison to the cough number of the pathosis-induced group: Example 3, 0.1 mg/kg, p<0.05 t-Test. The source says:
The fact that the morphinan derivatives having the nitrogen-containing cyclic substituent, represented by Formula (I) and the pharmaceutically acceptable acid addition salts thereof are effective for the therapy of coughing may be confirmed by showing inhibitory action against coughing of a guinea pig, which coughing has been induced by administering citric acid to the guinea pig. The inhibitory action against the coughing induced by citric acid administration may be confirmed by the method described in the Examples, but the method is not restricted thereto.
A solution of test substance, a solution of positive control substance (codeine phosphate) or the administration solvent was subcutaneously administered to 6 week-old Hartley guinea pigs at a volume of 0.1 mL/100 g. After leaving the guinea pigs to stand for 25 minutes, they were retained in acrylic chambers for cough detection and the chambers were set to a measurement equipment. Thirty minutes after the subcutaneous administration of the test substance, the nebulizer was turned on and 100 mM citric acid solution, a cough inducer, was atomized and sprayed to the face of each guinea pig for a period of 15 minutes (velocity: 50 mm/min). A minipolygraph was used for recording, and the respiratory waveform within the period of 15 minutes was recorded. A signal when a large and acute change of flow rate compared to the respiratory waveform occurred independently was considered as a cough, and marked on the recording sheet. The marking was conducted while recording the respiratory waveform. When a large and continuous amplitude arose by struggling, the amplitude was distinguished by noting that it was caused by struggling. Since some coughings cause just before, and/or between struggling, the recording sheet and the motion of the guinea pig were observed as simultaneously as possible.

SMILES strings stand for the structures. Counter-ions that a name gives are not always drawn.

As for `O=C1C=CC(=O)N1[C@@H]1CC[C@@]2(O)[C@H]3Cc4ccc(O)c5c4[C@@]2(CCN3CC2CC2)[C@H]1O5` [Compound 6, N-(17-cyclopropylmethyl-4,5α-epoxy-3,14-dihydroxy-morphinan-6β-yl)-maleimide-tartaric acid salt], the “antitussive effect (number of coughs)” value (1 mg/kg) is listed as “no antitussive effect was observed”.

Regarding `O=C1C2=C(CCCC2)C(=O)N1[C@@H]1CC[C@@]2(O)[C@H]3Cc4ccc(O)c5c4[C@@]2(CCN3CC2CC2)[C@H]1O5` [Compound 3, N-(17-cyclopropylmethyl-4,5α-epoxy-3,14-dihydroxy-morphinan-6β-yl)-3,4,5,6-tetrahydrophthalimide.tartaric acid salt], for the setting “n=3”, the “effects for suppressing coughs in comparison to the cough number of the pathosis-induced group” value (shortened to “effects for suppressing coughs”) is reported as “approximately 29%”.

As to `COc1ccc2c3c1O[C@H]1[C@@H](O)C=C[C@H]4[C@@H](C2)N(C)CC[C@@]341` [codeine phosphate, reference compound], the “effect for suppressing coughs” value (Example 1, 10 mg/kg, 100 mM citric acid spray 30 min after dosing, vs pathosis-induced group, p<0.05, n=7) is “approximately 51%” and the “effect for suppressing coughs” value (Example 2, 10 mg/kg, p<0.05 Welch-Test, n=3) was “approximately 37%”.

For `O=C1c2ccccc2S(=O)(=O)N1[C@@H]1CC[C@@]2(O)[C@H]3Cc4ccc(O)c5c4[C@@]2(CCN3CC2CC2)[C@H]1O5` [Compound 5, N-(17-cyclopropylmethyl-4,5α-epoxy-3,14-dihydroxy-morphinan-6β-yl)-O-sulfonbenzoic acid imide-tartaric acid salt], the “effects for suppressing coughs” value (n=3) is roughly 28%.

Take `O=C1c2ccccc2CN1[C@@H]1CC[C@@]2(O)[C@H]3Cc4ccc(O)c5c4[C@@]2(CCN3CC2CC2)[C@H]1O5` [Compound 4, 2-(7-cyclopropylmethyl-4,5α-epoxy-3,14-dihydroxy-morphinan-6β-yl)-2,3-dihydro-isoindol-1-one-tartaric acid salt]: the “effects for suppressing coughs” value (n=3) is roughly 25%.

Consider `O=C1c2ccccc2C(=O)N1[C@@H]1CC[C@@]2(O)[C@H]3Cc4ccc(O)c5c4[C@@]2(CCN3CC2CC2)[C@H]1O5` [Compound 1, N-(17-cyclopropylmethyl-4,5α-epoxy-3,14-dihydroxy-morphinan-6β-yl)-phthalimide], for which the “effect for suppressing coughs in comparison to the cough number of the pathosis-induced group” value is reported as “approximately 94%” (Example 1, 1 mg/kg, 100 mM citric acid spray 30 min after dosing, p<0.01, n=7) and “approximately 50%” (Example 2, 0.003 mg/kg, p<0.025 1 tailed-Shirley-Williams-Test, n=3).

Consider `Oc1ccc2c3c1O[C@H]1[C@H](N4CCCC4)CC[C@@]4(O)[C@@H](C2)N(CC2CC2)CC[C@]314` [Compound 2, 17-cyclopropylmethyl-4,5α-epoxy-6β-(pyrrolidine-1-yl)-morphinan-3,14-diol.tartaric acid salt], for which the “antitussive effect (number of coughs)” value (10 mg/kg) is reported as “no antitussive effect was observed”.
